Laboratory results taken from ChEMBL document CHEMBL4024791, “Identification of Morpholino-2H-pyrido[3,2-b][1,4]oxazin-3(4H)-ones as Nonsteroidal Mineralocorticoid Antagonists” (J Med Chem, 2018).

What was measured:
[1] = Fraction unbound in human plasma; assay type: ADME, cell-free
[2] = target: T1, Mineralocorticoid receptor (Rattus norvegicus, UniProt P22199); assay: Antagonist activity at rat GAL4-DBD fused MR ligand binding domain transfected in human Huh7 cells co-expressing GAL4-RE-Luc assessed as reduction in aldosterone-induced luciferase activity after 16 hrs in serum free condition by luciferase reporter gene assay; assay type: cell-based
T1 sequence (P22199 whole entry): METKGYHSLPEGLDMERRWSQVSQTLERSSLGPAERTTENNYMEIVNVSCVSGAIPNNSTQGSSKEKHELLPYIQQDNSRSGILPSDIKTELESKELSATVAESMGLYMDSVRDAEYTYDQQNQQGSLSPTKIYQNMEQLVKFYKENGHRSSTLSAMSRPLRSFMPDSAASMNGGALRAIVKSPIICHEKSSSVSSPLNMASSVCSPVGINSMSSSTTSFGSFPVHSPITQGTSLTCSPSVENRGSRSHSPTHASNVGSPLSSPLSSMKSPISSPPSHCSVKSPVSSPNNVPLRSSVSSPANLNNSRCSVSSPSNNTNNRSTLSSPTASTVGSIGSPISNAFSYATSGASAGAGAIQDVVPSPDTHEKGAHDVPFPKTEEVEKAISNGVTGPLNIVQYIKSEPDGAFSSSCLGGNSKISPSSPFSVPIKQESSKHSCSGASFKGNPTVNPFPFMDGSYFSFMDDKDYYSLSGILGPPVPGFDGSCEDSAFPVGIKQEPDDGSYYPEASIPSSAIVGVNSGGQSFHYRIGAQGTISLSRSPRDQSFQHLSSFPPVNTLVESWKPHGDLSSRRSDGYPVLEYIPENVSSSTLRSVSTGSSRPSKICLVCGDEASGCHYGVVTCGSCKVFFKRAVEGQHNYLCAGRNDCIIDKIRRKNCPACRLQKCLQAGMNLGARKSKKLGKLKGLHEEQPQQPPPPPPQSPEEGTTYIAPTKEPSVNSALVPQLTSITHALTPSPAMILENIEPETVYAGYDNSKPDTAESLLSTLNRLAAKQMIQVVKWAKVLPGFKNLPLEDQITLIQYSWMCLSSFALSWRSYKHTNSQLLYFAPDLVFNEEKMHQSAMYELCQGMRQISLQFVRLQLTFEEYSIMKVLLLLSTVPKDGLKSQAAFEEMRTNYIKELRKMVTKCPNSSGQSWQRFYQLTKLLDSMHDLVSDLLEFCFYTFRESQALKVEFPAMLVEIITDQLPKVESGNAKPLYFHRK

Androgen receptor = target: T2, Androgen receptor (Homo sapiens, UniProt P10275); assay: Binding affinity to AR (unknown origin); assay type: ADME
T2 sequence (P10275 whole entry): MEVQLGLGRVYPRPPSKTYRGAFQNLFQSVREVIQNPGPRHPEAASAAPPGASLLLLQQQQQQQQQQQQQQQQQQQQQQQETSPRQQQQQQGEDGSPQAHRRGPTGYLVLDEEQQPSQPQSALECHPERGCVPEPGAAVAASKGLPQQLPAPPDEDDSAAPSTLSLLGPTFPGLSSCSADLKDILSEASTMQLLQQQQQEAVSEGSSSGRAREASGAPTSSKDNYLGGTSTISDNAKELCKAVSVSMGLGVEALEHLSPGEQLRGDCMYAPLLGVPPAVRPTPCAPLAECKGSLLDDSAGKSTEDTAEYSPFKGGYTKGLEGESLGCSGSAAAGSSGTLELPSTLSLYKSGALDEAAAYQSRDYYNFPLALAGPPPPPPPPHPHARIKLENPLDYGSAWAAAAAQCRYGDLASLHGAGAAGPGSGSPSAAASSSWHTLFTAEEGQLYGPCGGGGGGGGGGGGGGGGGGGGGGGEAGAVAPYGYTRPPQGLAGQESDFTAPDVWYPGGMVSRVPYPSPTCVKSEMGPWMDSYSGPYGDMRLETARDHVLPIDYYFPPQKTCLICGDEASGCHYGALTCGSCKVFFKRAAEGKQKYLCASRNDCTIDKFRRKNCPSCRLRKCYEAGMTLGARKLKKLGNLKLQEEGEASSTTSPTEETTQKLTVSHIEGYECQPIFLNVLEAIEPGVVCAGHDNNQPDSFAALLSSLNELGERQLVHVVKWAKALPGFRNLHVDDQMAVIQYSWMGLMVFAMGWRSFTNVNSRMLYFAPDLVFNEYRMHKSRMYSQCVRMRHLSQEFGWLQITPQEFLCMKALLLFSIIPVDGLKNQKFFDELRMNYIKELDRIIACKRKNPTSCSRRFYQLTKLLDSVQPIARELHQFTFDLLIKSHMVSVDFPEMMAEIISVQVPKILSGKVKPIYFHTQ

fraction unbound [1]: 0.15 | IC50 [2]: 3.2 nM | IC50 (Androgen receptor): > 10000 nM
Compound: C[C@@H]1CN(c2ccc3c(n2)NC(=O)CO3)[C@H](c2ccccc2)CO1
